Results published in PubChem BioAssay (NCI).
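The concentration for 50% growth inhibition is given as GI50. TGI: total growth inhibition.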

Tests used:
Assay in all cases: NCI tumour cell line growth inhibition, 384-well format
786-0 renal = tested on: 786-0 renal
A498 renal = tested on: A498 renal
A549 NSCLC = tested on: A549 NSCLC
ACHN renal = tested on: ACHN renal
BT-549 breast = tested on: BT-549 breast
CAKI-1 renal = tested on: CAKI-1 renal
CCRF-CEM leukemia = tested on: CCRF-CEM leukemia
COLO 205 colon = tested on: COLO 205 colon
DU-145 prostate = tested on: DU-145 prostate
EKVX NSCLC = tested on: EKVX NSCLC
HCC-2998 colon = tested on: HCC-2998 colon
HCT-116 colon = tested on: HCT-116 colon
HCT-15 colon = tested on: HCT-15 colon
HL-60(TB) leukemia = tested on: HL-60(TB) leukemia
HOP-62 NSCLC = tested on: HOP-62 NSCLC
HOP-92 NSCLC = tested on: HOP-92 NSCLC
HS 578T breast = tested on: HS 578T breast
HT29 colon = tested on: HT29 colon
IGROV1 ovarian = tested on: IGROV1 ovarian
KM12 colon = tested on: KM12 colon
LOX IMVI melanoma = tested on: LOX IMVI melanoma
M14 melanoma = tested on: M14 melanoma
MALME-3M melanoma = tested on: MALME-3M melanoma
MDA-MB-435 melanoma = tested on: MDA-MB-435 melanoma
MDA-MB-468 breast = tested on: MDA-MB-468 breast
MOLT-4 leukemia = tested on: MOLT-4 leukemia
NCI-H226 lung = tested on: NCI-H226 lung
NCI-H23 lung = tested on: NCI-H23 lung
NCI-H322M lung = tested on: NCI-H322M lung
NCI-H460 NSCLC = tested on: NCI-H460 NSCLC
NCI-H522 lung = tested on: NCI-H522 lung
NCI/ADR-RES ovarian = tested on: NCI/ADR-RES ovarian
OVCAR-3 ovarian = tested on: OVCAR-3 ovarian
OVCAR-4 ovarian = tested on: OVCAR-4 ovarian
OVCAR-5 ovarian = tested on: OVCAR-5 ovarian
OVCAR-8 ovarian = tested on: OVCAR-8 ovarian
PC-3 prostate = tested on: PC-3 prostate
RPMI-8226 leukemia = tested on: RPMI-8226 leukemia
RXF 393 renal = tested on: RXF 393 renal
SF-268 CNS = tested on: SF-268 CNS
SF-295 CNS = tested on: SF-295 CNS
SF-539 CNS = tested on: SF-539 CNS
SK-MEL-28 melanoma = tested on: SK-MEL-28 melanoma
SK-MEL-5 melanoma = tested on: SK-MEL-5 melanoma
SK-OV-3 ovarian = tested on: SK-OV-3 ovarian
SN12C renal = tested on: SN12C renal
SNB-19 CNS = tested on: SNB-19 CNS
SNB-75 CNS = tested on: SNB-75 CNS
SW-620 colon = tested on: SW-620 colon
T-47D breast = tested on: T-47D breast
TK-10 renal = tested on: TK-10 renal
U251 glioblastoma = tested on: U251 glioblastoma
UACC-257 melanoma = tested on: UACC-257 melanoma
UACC-62 melanoma = tested on: UACC-62 melanoma
UO-31 renal = tested on: UO-31 renal

## Cc1cc(Cl)cc(OCCn2cc(F)cn2)c1-c1nc(N)nc2c1CN(C(=O)NCC(C)(F)F)C2
786-0 renal
  GI50: 0.0593 µM
  TGI: 5.81 µM
A498 renal
  GI50: 0.149 µM
  TGI: > 100 µM
A549 NSCLC
  GI50: 0.0456 µM
  TGI: > 100 µM
ACHN renal
  GI50: 0.389 µM
  TGI: > 100 µM
BT-549 breast
  GI50: 0.0363 µM
  TGI: 0.769 µM
CAKI-1 renal
  GI50: 0.163 µM
  TGI: > 100 µM
CCRF-CEM leukemia
  GI50: 0.0291 µM
  TGI: 0.0941 µM
COLO 205 colon
  GI50: 0.0306 µM
  TGI: 0.136 µM
DU-145 prostate
  GI50: 0.0405 µM
  TGI: 1.75 µM
EKVX NSCLC
  GI50: 0.0902 µM
  TGI: 31.1 µM
HCC-2998 colon
  GI50: 0.0215 µM
  TGI: 0.0714 µM
HCT-116 colon
  GI50: 0.0685 µM
  TGI: 18.2 µM
HCT-15 colon
  GI50: 0.339 µM
  TGI: > 100 µM
HL-60(TB) leukemia
  GI50: 0.0325 µM
  TGI: 0.0712 µM
HOP-62 NSCLC
  GI50: 0.0651 µM
  TGI: > 100 µM
HOP-92 NSCLC
  GI50: 0.0733 µM
  TGI: 0.279 µM
HS 578T breast
  GI50: 0.0468 µM
  TGI: 0.302 µM
HT29 colon
  GI50: 0.035 µM
  TGI: 16.8 µM
IGROV1 ovarian
  GI50: 0.0402 µM
  TGI: 0.443 µM
KM12 colon
  GI50: 0.0373 µM
  TGI: 0.802 µM
LOX IMVI melanoma
  GI50: 0.0357 µM
  TGI: 0.129 µM
M14 melanoma
  GI50: 0.0408 µM
  TGI: > 100 µM
MALME-3M melanoma
  GI50: 0.0307 µM
  TGI: 0.0852 µM
MDA-MB-435 melanoma
  GI50: 0.0831 µM
  TGI: > 100 µM
MDA-MB-468 breast
  GI50: 0.034 µM
  TGI: 0.076 µM
MOLT-4 leukemia
  GI50: 0.0175 µM
  TGI: 0.0347 µM
NCI-H226 lung
  GI50: 0.174 µM
  TGI: 0.842 µM
NCI-H23 lung
  GI50: 0.0321 µM
  TGI: 0.0954 µM
NCI-H322M lung
  GI50: 0.136 µM
  TGI: > 100 µM
NCI-H460 NSCLC
  GI50: 0.0342 µM
  TGI: 0.106 µM
NCI-H522 lung
  GI50: 0.0239 µM
  TGI: 0.0457 µM
NCI/ADR-RES ovarian
  GI50: 5.11 µM
  TGI: 63 µM
OVCAR-3 ovarian
  GI50: 0.0416 µM
  TGI: 0.939 µM
OVCAR-4 ovarian
  GI50: > 100 µM
  TGI: > 100 µM
OVCAR-5 ovarian
  GI50: 0.115 µM
  TGI: > 100 µM
OVCAR-8 ovarian
  GI50: 0.0431 µM
  TGI: 0.181 µM
PC-3 prostate
  GI50: 0.0867 µM
  TGI: 0.533 µM
RPMI-8226 leukemia
  GI50: 0.057 µM
  TGI: 0.305 µM
RXF 393 renal
  GI50: 0.0413 µM
  TGI: 0.842 µM
SF-268 CNS
  GI50: 0.024 µM
  TGI: 0.0632 µM
SF-295 CNS
  GI50: 0.0589 µM
  TGI: 0.23 µM
SF-539 CNS
  GI50: 0.0261 µM
  TGI: 0.0628 µM
SK-MEL-28 melanoma
  GI50: 0.0715 µM
  TGI: > 100 µM
SK-MEL-5 melanoma
  GI50: 0.0472 µM
  TGI: > 100 µM
SK-OV-3 ovarian
  GI50: 0.121 µM
  TGI: > 100 µM
SN12C renal
  GI50: 0.0516 µM
  TGI: 0.316 µM
SNB-19 CNS
  GI50: 0.122 µM
  TGI: 24.4 µM
SNB-75 CNS
  GI50: 0.152 µM
  TGI: 0.664 µM
SW-620 colon
  GI50: 0.0385 µM
  TGI: 0.268 µM
T-47D breast
  GI50: 0.0438 µM
  TGI: 0.307 µM
TK-10 renal
  GI50: 0.275 µM
  TGI: 12.7 µM
U251 glioblastoma
  GI50: 0.0379 µM
  TGI: 0.13 µM
UACC-257 melanoma
  GI50: 0.394 µM
  TGI: > 100 µM
UACC-62 melanoma
  GI50: 0.0543 µM
  TGI: 0.3 µM
UO-31 renal
  GI50: 0.394 µM
  TGI: 56.1 µM
